Results taken from patent publication US20260217691A1, “FOXM1 INHIBITORS AND THEIR USE IN TREATING CANCERS” (THE BOARD OF TRUSTEES OF THE UNIVERSITY OF ILLINOIS, priority 2022, published 2026).

Tests used:
[1] = tested on: 22RV1, LNCaP cells
Description: (§1) FIG. 17. […] (A) Prostate cancer (22RV1 and LNCaP) cells were treated with indicated concentrations of paclitaxel alone or in combination with STL001 for 24 hrs. (B) Tamoxifen resistance MCF-7 breast cancer cells (TAM-R) were treated with indicated concentrations of Tamoxifen alone or in combination with STL001 for 24 hrs. In all cases, total protein samples were obtained from cells immediately after treatment and analyzed for FOXM1, cleaved caspase-3 levels via immunoblotting, β-actin was used as internal loading control (n=3). (C) Percent (%) dead cells in TAM-R cells treated with indicated concentrations of Tamoxifen alone or in combination with STL001 for 24 hrs. […] (F) HCC 143 cells with stable shRNA-mediated FOXM1 knockdown (KD) were treated with doxorubicin alone or in combination with STL001 for 24 hrs and compared to parental cells under the same treatment conditions. In all cases, total protein samples were obtained from cells immediately after treatment and analyzed for FOXM1, cleaved caspase-3 levels via immunoblotting, β-actin was used as internal loading control (n=3).

[2] = tested on: KG-1, HL-60, K562, THP-1 cells; assay type: cell-based
[3] = tested on: TAMR cells; assay type: cell-based
Description: as §1

[4] = tested on: HCT-116 and HCT-FET cells; assay: Chemosensitization (caspase-3 cleavage) of colorectal cancer cells to 5′FU; assay type: cell-based, human
Description: FIG. 16. […] (A) Ovarian cancer (OVCAR-8 and ES-2) cells were treated with indicated concentrations of Doxorubicin (Doxo) alone or in combination with STL001 for 24 hrs. […] (C) colon cancer (HCT-116 and FET) cells were treated with indicated concentrations of 5′FU alone or in combination with STL001 for 24 hrs.

[5] = molecular target: T1, FOXM1 (Homo sapiens, UniProt Q08050); assay: Immunohistochemistry for nuclear FOXM1 in primary AML samples treated ex vivo; assay type: cell-based; set-up: Total protein samples obtain from treated cells were analyzed for FOXM1 protein levels via immunoblotting; endogenous in cells; host or cells: KG-1, HL-60, K562, THP-1 leukemia cell lines; conditions: primary AML samples (n=4), 24 h, 43% for DMSO, p=0.06
T1 sequence (Q08050 1-763): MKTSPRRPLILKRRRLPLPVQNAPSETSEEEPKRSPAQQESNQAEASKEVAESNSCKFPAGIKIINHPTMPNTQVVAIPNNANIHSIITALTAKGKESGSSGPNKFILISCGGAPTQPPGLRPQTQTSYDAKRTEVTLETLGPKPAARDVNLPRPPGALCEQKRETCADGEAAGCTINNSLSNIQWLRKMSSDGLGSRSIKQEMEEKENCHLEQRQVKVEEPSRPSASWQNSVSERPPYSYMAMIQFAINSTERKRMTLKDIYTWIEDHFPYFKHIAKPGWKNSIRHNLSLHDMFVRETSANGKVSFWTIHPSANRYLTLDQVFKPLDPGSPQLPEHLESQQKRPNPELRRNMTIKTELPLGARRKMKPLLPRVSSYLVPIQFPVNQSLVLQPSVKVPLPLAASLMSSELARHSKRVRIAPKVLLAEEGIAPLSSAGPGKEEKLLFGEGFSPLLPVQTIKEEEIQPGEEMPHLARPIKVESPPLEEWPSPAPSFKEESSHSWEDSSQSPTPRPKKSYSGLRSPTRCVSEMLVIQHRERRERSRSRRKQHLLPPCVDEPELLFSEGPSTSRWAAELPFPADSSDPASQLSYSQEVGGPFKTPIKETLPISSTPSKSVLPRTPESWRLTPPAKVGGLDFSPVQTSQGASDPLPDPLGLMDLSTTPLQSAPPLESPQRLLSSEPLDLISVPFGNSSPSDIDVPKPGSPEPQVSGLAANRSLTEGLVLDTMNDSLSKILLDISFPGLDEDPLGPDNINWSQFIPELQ
Description: FIGS. 13A-13H STL001 is a novel FOXM1 inhibitor that sensitizes leukemia cells to standard cytotoxic and bcl2 inhibitor therapies. FIG. 13A AML cell line KG-1 treated with precursor compound STL427944. FIG. 3B AML cell lines KG-1, HL-60, and K562 were treated with increasing concentrations of STL001 for 24 h. Total protein samples obtained from treated cells were analyzed for FOXM1 protein levels using immunoblotting; β-actin was used as the internal loading control. FIG. 13C KG-1, HL-60, and K562 cells were treated with indicated concentrations of venetoclax and STL001 alone or in combination for 24 h. FIG. 13D KG-1, HL-60, and K562 cells were treated with indicated concentrations of cytarabine and STL001 alone or in combination for 24 h. […] Total protein samples obtained from treated cells were analyzed for FOXM1 protein levels via immunoblotting; β-actin was used as an internal loading control. […] Slides were scanned on an Aperio AT2 brightfield scanner and images were analyzed using HALO 2.0 software. […]
In addition, primary AML samples (n=4) were treated ex vivo with STL001 and slides were scanned on an Aperio AT2 brightfield scanner and images were analyzed using HALO 2.0 software. The % of nuclei staining positive for FOXM1 was calculated per cell and averaged per slide to analyze FOXM1 protein expression and localization. […]

[6] = KG-1, HL-60 and K562 cells, 24 h

## O=C(Oc1cccc(-c2ccn(-c3nc(Nc4ccccc4)nc(N4CCOCC4)n3)n2)c1)c1ccco1 [STL001]
[1]
  cytotoxic effects (caspase-3 cleavage) in combination with taxol: enhanced the cytotoxic effects of taxol-therapy
[2]; AML cell lines, single agent
  cytotoxic action alone: did not exert prominent cytotoxic action on its own
[2]; [6]
  apoptosis (caspase-3 cleavage) in combination with cytarabine: potent induction of apoptosis
  apoptosis (caspase-3 cleavage) in combination with venetoclax: potent induction of apoptosis
[2]; KG-1 shFOXM1 cells, venetoclax
  treatment sensitization effect in cells with stable knockdown of FOXM1: absent
[3]
  cytotoxic effects (caspase-3 cleavage, cell viability) in combination with tamoxifen: drastically enhances the cytotoxic effects of tamoxifen therapy
[4]
  sensitivity to cytotoxic effects of 5′FU in combination: significantly enhanced the sensitivity of colorectal cancer cells to cytotoxic effects of 5′FU therapy
[5]
  % of nuclei expressing FOXM1 after treatment: 29%
